Seven compounds from US20230141569A1, “FLUORESCENT DYE, AND PREPARATION METHOD AND USES THEREOF” (FLUORESCENCE DIAGNOSIS (SHANGHAI) BIOTECH COMPANY LTD., priority 2020, published 2023) can be followed below.

Structures are written as SMILES.

For one data set, the system named is mRNA of ACTB. The experiment in a line: Flow detection of mRNA labeling in 293T/17 cells (Test Example 5). The conditions noted are these: 0.2 μM in PBS, 5 minutes incubation; for background fluorescence in flow detection: 293T/17 control cells. The format is cell-based. The text has this:
FIGS. 21A and 21B are a flow detection diagram for molecular rotors IV-21 and IV-41 for labeling mRNA.

In data set [1] the test system is RNA aptamer. The experiment in a line: Labeling intracellular RNA aptamer in cells (Test Example 4, FIG. 20A/20B). Type of data set: cell-based. The conditions noted are these: for fluorescence of cells expressing the RNA aptamer: FIG. 20A; for fluorescence of cells not expressing the RNA aptamer: FIG. 20B. The text has this: FIGS. 20A and 20B are the application of molecular rotors IV-1, IV-2, IV-3, IV-4, IV-5, IV-6, IV-17, IV-18, IV-19, IV-20, IV-21, IV-22 in labeling intracellular RNA aptamer, wherein FIG. 20A are cells expressing the target RNA aptamer, and FIG. 20B are cells not expressing the target RNA aptamer;

Data set [2] relates to RNA aptamer. The experiment in a line: Optical properties after binding to RNA aptamer (Test Example 4). The conditions noted are these: for Em/nm / Ex/nm / ε / QY (−): after binding to RNA aptamer; for QY (−): relative method with Rhodamine 6G as the standard; for compound fluorescence after binding to RNA aptamer: excited at a suitable wavelength. The format is biochemical.

A short description of data set [3]: Fluorescence emission at different viscosity conditions, diethanol-glycerol mixed solution (Test Example 2). Type of data set: physicochemical. To be noted: 1×10^−5 M, excited at 480 nm.
Data set [4] can be described thus: Viscosity response: fluorescence in glycerin vs methanol (Test Example 1). The format is physicochemical. The conditions noted are these: final concentration 1×10^−5 M; for Glycerin/Methanol Fluorescence Intensity Ratio: excited at maximum excitation wavelength of each dye; for Maximum Excitation Wavelength (nm): glycerin and methanol.

`CN1C(=O)/C(=C/c2ccc(N(C)CCO)cc2)N=C1/C=C/c1ccc(C#N)cc1` [IV-21]: the “labeling of mRNA of ACTB in cell lines expressing target RNA” value in the data set with mRNA of ACTB (293T/17, flow detection) is recorded as “could specifically label mRNA of ACTB”. The “background fluorescence in flow detection” value in the data set on mRNA of ACTB is “no obvious background fluorescence”. In the data set on RNA aptamer [1], the “fluorescence of cells expressing the RNA aptamer” value is listed as “bright fluorescence” and the “fluorescence of cells not expressing the RNA aptamer” value is listed as “no fluorescence”. In addition, in the data set on RNA aptamer [2], the Em/nm is 624 nm, the Ex/nm is listed as 534 nm, the “ε” value worked out at 26222 M⁻¹ cm⁻¹ and the “QY (−)” value was 0.28. The “compound fluorescence after binding to RNA aptamer” value (shortened to “compound fluorescence after binding”) in the data set on RNA aptamer [2] is reported as “noticeably activated”. The “fluorescence intensity at different viscosity conditions” value in data set [3] is given as “gradually increasing fluorescence intensity”. Also, in data set [4], the “Glycerin/Methanol Fluorescence Intensity Ratio” value worked out at 655 and the “Maximum Excitation Wavelength (nm)” value stood at 624 nm.

For the compound `CN1C(=O)/C(=C/c2cc(F)c(O)c(F)c2)N=C1/C=C/c1cccc(C#N)c1` [IV-2], in the data set with RNA aptamer [1], the “fluorescence of cells expressing the RNA aptamer” value is listed as “bright fluorescence” and the “fluorescence of cells not expressing the RNA aptamer” value is “no fluorescence”. In addition, in the data set with RNA aptamer [2], the Em/nm is reported as 595 nm, the Ex/nm is 492 nm, the “ε” value was 25000 M⁻¹ cm⁻¹ and the “QY (−)” value was 0.36. Also, the “compound fluorescence after binding” value with RNA aptamer [2] is “noticeably activated”. Also, the “fluorescence intensity at different viscosity conditions” value in data set [3] was “gradually increasing fluorescence intensity”. In data set [4], the “Glycerin/Methanol Fluorescence Intensity Ratio” value was 687 and the “Maximum Excitation Wavelength (nm)” value is 595 nm.

Regarding `CN1C(=O)/C(=C/c2cc(F)c(O)c(F)c2)N=C1/C=C/c1cccc(O)c1` [IV-4], in the data set on RNA aptamer [1], the “fluorescence of cells expressing the RNA aptamer” value is listed as “bright fluorescence” and the “fluorescence of cells not expressing the RNA aptamer” value is recorded as “no fluorescence”. Further, in the data set with RNA aptamer [2], the Em/nm is 574 nm, the Ex/nm is reported as 490 nm, the “ε” value came to 23333 M⁻¹ cm⁻¹ and the “QY (−)” value was 0.37. Also, in the data set with RNA aptamer [2], the “compound fluorescence after binding” value is “noticeably activated”. In addition, in data set [3], the “fluorescence intensity at different viscosity conditions” value is given as “gradually increasing fluorescence intensity”. In addition, in data set [4], the “Glycerin/Methanol Fluorescence Intensity Ratio” value was 687 and the “Maximum Excitation Wavelength (nm)” value is listed as 574 nm.

As for `CN1C(=O)/C(=C/c2ccc(N(C)CCO)cc2)N=C1/C=C/c1ccccc1` [IV-41, reference compound], the “background fluorescence in flow detection” value with mRNA of ACTB is listed as “higher than that of IV-21”.

On to `CN1C(=O)/C(=C/c2ccc(N(C)CCO)cc2)N=C1/C=C/c1cccc(F)c1` [IV-19], for which, in the data set with RNA aptamer [1], the “fluorescence of cells expressing the RNA aptamer” value is recorded as “bright fluorescence” and the “fluorescence of cells not expressing the RNA aptamer” value was “no fluorescence”. Moreover, in the data set with RNA aptamer [2], the Em/nm is reported as 590 nm, the Ex/nm is 522 nm, the “ε” value turned out to be 30000 M⁻¹ cm⁻¹ and the “QY (−)” value is 0.43. In addition, in the data set on RNA aptamer [2], the “compound fluorescence after binding” value is “noticeably activated”. In data set [3], the “fluorescence intensity at different viscosity conditions” value is given as “gradually increasing fluorescence intensity”. Further, in data set [4], the “Glycerin/Methanol Fluorescence Intensity Ratio” value came to 821 and the “Maximum Excitation Wavelength (nm)” value was determined as 577 nm.

Turning to `CN1C(=O)/C(=C/c2cc(F)c(O)c(F)c2)N=C1/C=C/c1ccc(C#N)cc1` [IV-1], in the data set on RNA aptamer [1], the “fluorescence of cells expressing the RNA aptamer” value is listed as “bright fluorescence” and the “fluorescence of cells not expressing the RNA aptamer” value was “no fluorescence”. In addition, in the data set with RNA aptamer [2], the Em/nm amounted to 618 nm, the Ex/nm is 510 nm, the “ε” value came to 20667 M⁻¹ cm⁻¹ and the “QY (−)” value came to 0.17. Also, the “compound fluorescence after binding” value in the data set with RNA aptamer [2] is “noticeably activated”. The “fluorescence intensity at different viscosity conditions” value in data set [3] is “gradually increasing fluorescence intensity”. Further, in data set [4], the “Glycerin/Methanol Fluorescence Intensity Ratio” value amounted to 987 and the “Maximum Excitation Wavelength (nm)” value came out at 618 nm.

`CN1C(=O)/C(=C/c2ccc(N(C)CCO)cc2)N=C1/C=C/c1cccc(O)c1` [IV-17]: in the data set with RNA aptamer [1], the “fluorescence of cells expressing the RNA aptamer” value is “bright fluorescence” and the “fluorescence of cells not expressing the RNA aptamer” value is “no fluorescence”. Besides, in the data set on RNA aptamer [2], the Em/nm stood at 582 nm, the Ex/nm came to 524 nm, the “ε” value is 32000 M⁻¹ cm⁻¹ and the “QY (−)” value is 0.47. Moreover, the “compound fluorescence after binding” value in the data set on RNA aptamer [2] was “noticeably activated”. Besides, the “fluorescence intensity at different viscosity conditions” value in data set [3] is recorded as “gradually increasing fluorescence intensity”. Moreover, in data set [4], the “Glycerin/Methanol Fluorescence Intensity Ratio” value was found to be 655 and the “Maximum Excitation Wavelength (nm)” value is 575 nm.
